Laboratory results published in patent publication US20160175302A1 (AB SCIENCE, priority 2014, published 2016).

Experiments:
[1] = test system: Gastric cancer cell line HGC-27; assay: Colorimetric cell proliferation and viability assay (CellTiter-Blue), HGC-27; conditions: Homo sapiens, HGC-27, 72 h, read-out: IC50, agent alone
[2] = clinically achievable concentrations, plasma; read-out: Cmax (reported / approximate, measured in plasma); cited from earlier work
[3] = test system: Gastric cancer cell line AGS; assay: Colorimetric cell proliferation and viability assay (CellTiter-Blue), AGS; conditions: 72 h, read-out: IC50, agent alone

Row | Compound | IC50 [1] | IC50 [3] | Cmax [2]
1 | COc1cc([C@@H]2c3cc4c(cc3[C@@H](O[C@@H]3O[C@@H]5CO[C@@H](C)O[C@H]5[C@H](O)[C@H]3O)[C@H]3COC(=O)[C@H]23)OCO4)cc(OC)c1O [Etoposide] | 20 µM | 10 µM | ~34 µM
2 | CC[C@]1(O)C[C@H]2CN(CCc3c([nH]c4ccccc34)[C@@](C(=O)OC)(c3cc4c(cc3OC)N(C=O)[C@H]3[C@@](O)(C(=O)OC)[C@H](OC(C)=O)[C@]5(CC)C=CCN6CC[C@]43[C@@H]65)C2)C1 [Vincristin] | 0.1 to 1 µM | > 1 µM | 

Continued, in another order:

Row | IC50 [1] | IC50 [3] | Compound | Cmax [2]
3 | 1000 µM | 100 µM | O=c1[nH]cc(F)c(=O)[nH]1 [5-FU, 5-fluorouracil] | 60 to 200 µM
4 | > 100 µM | 20 µM | CCc1c2c(nc3ccc(OC(=O)N4CCC(N5CCCCC5)CC4)cc13)-c1cc3c(c(=O)n1C2)COC(=O)[C@]3(O)CC [Irinotecan] | 1 to 10 µM
5 | 5 to 10 µM | 5 to 10 µM | Cc1ccc(NC(=O)c2ccc(CN3CCN(C)CC3)cc2)cc1Nc1nc(-c2cccnc2)cs1 [masitinib, 4-(4-methylpiperazin-1-ylmethyl)-N-[4-methyl-3-(4-pyridin-3ylthiazol-2-ylamino)phenyl]benzamide] | 
